Experimental data: patent US20240285670A1, “THERAPEUTIC TREATMENT OF TUMORS BY BLOCKING THE HEME SYNTHESIS-EXPORT AXIS” (Università degli Studi di Torino, priority 2021, published 2024)

Legend:
SH-SY5Y cells = experiment: Activity of mitochondrial ETC complexes I-IV in SHSY-5Y cells; format: cell-based, human; conditions: FLVCR1a-silenced vs scramble shRNA SH-SY5Y cells
Source text: Results were expressed as nmol NAD*/min/mg mitochondrial protein for complex I, nmol reduced cytochrome c/min/mg mitochondrial protein for complexes II-III, nmol oxidized cytochrome c/min/mg mitochondrial protein for complex IV. Data represent mean±SEM, n=3. For statistical analyses, an unpaired Student's t-test was used; *=p<0.05, **=p<0.01, *=p<0.001. […] Results are expressed as nmol/mg mitochondrial proteins. Data represent mean±SEM, n=3. For statistical analyses, an unpaired Student's t-test was used; *=p<0.05. […] Results are expressed as pmol CO2/h/mg protein. Data represent mean±SEM, n=3. For statistical analyses, an unpaired Student's t-test was used; **=p<0.01. […] Results were expressed as nmol NAD*/min/mg mitochondrial protein for complex I, nmol reduced cytochrome c/min/mg mitochondrial protein for complexes II-III, nmol oxidized cytochrome c/min/mg mitochondrial protein for complex IV. […] Results are expressed as nmol/mg mitochondrial proteins. […] Results are expressed as pmol CO2/h/mg protein. […] (H) TCA cycle enzymes activities are reported in boxes and expressed as mU/mg mitochondrial proteins. […] Results were expressed as nmol NAD^+/min/mg mitochondrial protein for complex I, nmol reduced cytochrome c/min/mg mitochondrial protein for complexes II-III, nmol oxidized cytochrome c/min/mg mitochondrial protein for complex IV. […] Results are expressed as nmol/mg mitochondrial proteins. […]

BTECs = BTECs counting (cell proliferation); format: cell-based, human; conditions: FLVCR1a-silenced vs scramble shRNA BTECs, 24, 48 and 72 hours
Source text: (A) BTECs counting, as a readout of cell proliferation, at the indicated time points. […] Data represent mean±SEM, n=4. For statistical analyses, a two-way analysis of variance was used, followed by the Bonferroni correction for multiple group comparisons; ***p<0.001. (B) Quantification of BTECs migration rate in wound-healing assay. […] Data represent mean±SEM, n=32. For statistical analyses, a nonparametric unpaired Mann-Whitney test was used; ***p<0.001. (C) In vitro tubulogenesis assay on matrigel. […] The number of nodes counted within the neo-formed vascular networks is shown. Data represent mean±SEM; n=10. For statistical analyses, a nonparametric unpaired Mann-Whitney test was used; **p<0.01.
For cell counting, 1*10^4 BTECs were seeded in 12-well plates and counted at 24, 48 and 72 hours after plating, as a readout of cell proliferation. Three independent experiments were performed.

## FLVCR1a shRNA: shRNA specifically down-regulating FLVCR1a without targeting FLVCR1b; pLKO.1 lentiviral clone TRCN0000059599, antisense SEQ ID No.: 2 (antisense TTGCTAATGATGCTGTACTGG; sense CCAGTACAGCATCATTAGCAA)
SH-SY5Y cells
  activity of ETC complexes: enhanced activity of ETC complexes
BTECs
  cell proliferation (cell counting): reduced proliferation
